Measurements reported in patent US20220307053A1, “REGULATABLE EXPRESSION SYSTEMS” (Novartis AG, priority 2019, published 2022).
Entries after “also recorded” stand apart in the source; their conditions may differ.

Assays:
[1] = test system: pJSNX-GFP (SNX7 minigene ON-switch) in HEK293 cells; test: GFP expression from SNX7 minigene ON-switch in HEK293 cells (fluorescent microscope, FACS); format: cell-based, human; conditions: LMI070 2 nm-1 uM, 48 hours post transfection, vs DMSO
Procedure: (§1) HEK293 cells were maintained in complete DMEM media and seeded in 24-well plate at 100,000 cells per well densite day before transfection. Each well was transfected with 2 ug of pJSNX-GFP plasmid DNA using Lipofectamine2000 (Invitrogen) according to manufacturer's protocol. Transfection media was replaced with complete DMEM 4 hours later. Initial 1 mM stock of LMI070 in DMSO was diluted in 1/1,000-1/500,000 in DMEM to achieve concentrations 2 nm-1 uM when added to the cells in 24 hours later. Control cells received 0.1% DMSO. GFP expression was evaluated 48 hours post transfection using fluorescent microscope. […] For quantitative analysis of GFP expression, cells were trypsinized and analyzed by FACS using SONY SH-800 flow cytometer. Mean fluorescence intensity was used for relative measurement of GFP expression. […] For RNA splicing analysis, total RNA was extracted from cells using Trizol (Invitrogen) according to manufacturer's protocol. cDNA was synthesized using Superscript III 1st strand supermix for qRT-PCR (Invitrogen). Inclusion of exon B was evaluated using qPCR by measuring amounts of exonB-exonC amplified by […] […] Amounts of constitutively spliced RNA (i.e. exonA-exonC) was measured using […] […]

[2] = test system: SNX7 minigene exon B inclusion in HEK293 cells; test: RNA splicing analysis by qPCR in pJSNX-GFP transfected HEK293 cells; format: cell-based, human
Procedure: as §1

[3] = test system: SNX7 minigene exon B inclusion in primary rat neurons; test: RNA splicing analysis by qPCR in pJSNX-GFP transfected primary rat neurons; format: cell-based
Procedure: Primary rat neurons were prepared from dissected rat embryo cortices digested with papain and cultured in complete Neurobasal media in 24-well poly-D-Lysine plates (Corning) at density 150,000 cells/well for 7 days. Half of the media was replaced with fresh media day before transfection. Each well was transfected with 2 ug of pJSNX-GFP plasmid DNA using Lipofectamine2000 (Invitrogen) according to manufacturer's protocol, except cells were washed three times with optiMEM before adding DNA-liposomes cocktails. Transfection media was replaced with conditioned media containing 50% fresh complete Neurobasal media 4 hours later. Next day, 1 mM stock of LMI070 in DMSO was diluted in 1/1,000-1/500,000 in DMEM to achieve concentrations 2 nm-1 uM when added to the cells. Control cells received 0.1% DMSO. GFP expression was evaluated 6 days post transfection using fluorescent microscope. […] For RNA splicing analysis, total RNA was extracted from cells using Trizol (Invitrogen) according to manufacturer's protocol. cDNA was synthesized using Superscript III 1st strand supermix for qRT-PCR (Invitrogen). Inclusion of exon B was evaluated using qPCR by measuring amounts of exonB-exonC amplified by […] […] Amounts of constitutively spliced RNA (i.e. exonA-exonC) was measured using […] […]

[4] = test system: pSyn-snx7-PGRN (SNX7 switch) in primary rat neurons; test: hPGRN expression by TR-FRET assay in pSyn-snx7-PGRN transfected primary rat neurons; format: cell-based; conditions: 100 nm LMI070, 6 days post transfection
Procedure: (§2) Primary rat neurons were prepared from dissected rat embryo cortices digested with papain and cultured in complete Neurobasal media in 24-well poly-D-Lysine plates (Corning) at density 150,000 cells/well for 7 days. Half of the media was replaced with fresh media day before transfection. […] Transfection media was replaced with conditioned media containing 50% fresh complete Neurobasal media 4 hours later. Next day, 1 mM stock of LMI070 in DMSO was diluted in 1/10,000 in DMEM to achieve concentrations 100 nm when added to the cells. Control cells received 0.01% DMSO. hPGRN expression was measured 6 days post transfection using TR-FRET assay. In pSyn-snx7-PGRN transfected cells, expression of hPGRN was induced by LMI070 more than 30 times comparing to DMSO-treated control (FIG. 6B). For RNA splicing analysis, total RNA was extracted from cells using Trizol (Invitrogen) according to manufacturer's protocol. cDNA was synthesized using Superscript III 1st strand supermix for qRT-PCR (Invitrogen). Inclusion of exon B was evaluated using qPCR by measuring amounts of exonB-exonC junction amplified by […] (SEQ ID NO: 103) and GCGGTTGCGAGGTTTATCT (SEQ ID NO: 104) primers pair as compared to total transgene mRNA amplified by primers specific to exon C, GCGGTTGCGAGGTTTATCT (SEQ ID NO: 104) and […] (SEQ ID NO: 105). […] Amounts of constitutively spliced RNA (i.e. exonA-exonC) was measured using […] […]

[5] = test system: SNX7 minigene exon B inclusion in primary rat neurons; test: RNA splicing analysis by qPCR in pSyn-snx7-PGRN transfected primary rat neurons; format: cell-based; conditions: 100 nm LMI070
Procedure: as §2

[6] = test system: ssAAV9 hPGRN with SNX7 switch (version 1) in mouse brain; test: Time course of hPGRN expression in mouse brain after oral LMI070 (ssAAV9 SNX7 switch version 1, TR-FRET); format: in vivo; conditions: C57Bl/6 mice
Procedure: ssAAV9 viral vector encoding hPGRN under control of synapsin promoter with SNX7 switch (version 1) was produced in HEK293 cells and purified by iodixanol. 2e10vg of AAV vector in 2 uL was injected ICV in C57Bl/6 neonatal mice at P0. At 4 weeks of age, 30 mg/kg of LMI070 or vehicle control was administered orally through gavage. 4-6 mice per group were taken down at specified time points (FIG. 7A). After transcardial perfusion with PBS posterior half of the left hemisphere was homogenyzed in Precellys tube. TR-FRET assay was used for measurement of human PGRN expressed from AAV vector. […] The transgenic protein expression returned to untreated levels after 4 days post LMI070 administration (FIG. 7B).

[7] = test system: ssAAV9 hPGRN with SNX7 switch (version 1) in mouse brain; test: Dose response of hPGRN expression in mouse brain after oral LMI070 (ssAAV9 SNX7 switch version 1, TR-FRET); format: in vivo, FVB mice
Procedure: ssAAV9 viral vector encoding hPGRN under control of synapsin promoter with SNX7 switch (version 1) was produced in HEK293 cells and purified by iodixanol. 2e10vg of AAV vector in 2 uL was injected ICV in FVB neonatal mice at P0. At 4 weeks of age, 3, 10 or 30 mg/kg of LMI070 or vehicle control was administered orally through gavage. 6-7 mice per group were taken down at specified time points (FIG. 8A). After transcardial perfusion with PBS posterior half of the left hemisphere was homogenyzed in Precellys tube. TR-FRET assay was used for measurement of human PGRN expressed from AAV vector. Sample of human cortex was used as a control for physiological PGRN levels (˜200 pg/mg).

[8] = test system: SNX7 minigene switch in HEK293 cells; test: Comparison of SNX7 switch version 1 and version 2 in HEK293 cells in response to LMI070; format: cell-based, human; conditions: HEK293, plasmid DL182 (version 2) vs DL180 (version 1), LMI070 100 nm-1 uM, 48 hours post transfection
Procedure: The modified SNX7 minigene (version 2) was inserted into a scAAV vector using molecular cloning techniques. The sequence of the vector comprising the modified SNX7 minigene (version 2) is shown in SEQ ID NO: 95. HEK293 cells were maintained in complete DMEM media and seeded in 24-well plate at 100,000 cells per well densite day before transfection. Each well was transfected with 2 ug of plasmid DNA DL180 containing SNX7 switch version 1 or plasmid DL182 containing SNX7 version 2 using Lipofectamine2000 (Invitrogen) according to manufacturer's protocol. Transfection media was replaced with complete DMEM 4 hours later. Initial 1 mM stock of LMI070 in DMSO was diluted in 1/1,000-1/500,000 in DMEM to achieve concentrations 100 nm-1 uM when added to the cells in 24 hours later. Control cells received 0.1% DMSO. GFP expression was evaluated 48 hours post transfection using fluorescent microscope.

Molecule	GFP expression (mean fluorescence intensity) [1]	Inclusion of exon B (exonB-exonC vs total transgene mRNA), upregulated as compared to DMSO-treated cells ([2]; HEK293, 125 nM LMI070) [times]	exonA-exonC splicing, lower as compared to control DMSO-treated cells ([2]; HEK293, 1 uM LMI070) [times]	Inclusion of exon B, upregulated as compared to DMSO-treated cells ([3]; 31 nM LMI070)	exonA-exonC splicing, lower as compared to control DMSO-treated cells ([3]; 500 nM LMI070) [times]	expression of hPGRN induced, comparing to DMSO-treated control [4]	Inclusion of exon B, upregulated as compared to DMSO-treated cells [5]	exonA-exonC splicing, lower as compared to DMSO-treated cells [5] [times]	time after which transgenic protein expression returned to untreated levels ([6]; 30 mg/kg LMI070 orally) [days]	hPGRN expression in the brain post LMI070 administration (time course) ([6]; ssAAV9 ICV at P0, 30 mg/kg LMI070 orally at 4 weeks)	transgene expression in brain vs LMI070 dose ([7]; FVB mice, 3, 10 or 30 mg/kg LMI070 orally)	accumulation of transgenic hPGRN in the brain (time course) ([7]; FVB mice, ssAAV9 ICV at P0, 3, 10 or 30 mg/kg LMI070 orally at 4 weeks)	sensitivity of minigene switch in response to LMI070 (GFP expression) [8]
CC1(C)CC(Oc2ccc(-c3ccc(-c4cn[nH]c4)cc3O)nn2)CC(C)(C)N1 [LMI070, 5-(1H-Pyrazol-4-yl)-2-(6-((2,2,6,6-tetramethylpiperidin-4-yl)oxy)pyridazin-3-yl)phenol]	dose-dependent increase in GFP expression	75	60	more than 100 times	30	more than 30 times	more than 150 times	10	4	rapid and transient induction of hPGRN expression in the brain after 24 hours post LMI070 administration; also recorded: switches on transgene expression in mouse brain in time-dependent manner	dose response; also recorded: switches on transgene expression in mouse brain in dose-dependent manner	rapid (12 hours post LMI070 administration) accumulation of transgenic hPGRN in the brain, which starts to decline at 24 hour point	–
modified SNX7 minigene (version 2): SNX7 minigene modified to reduce size and eliminate peptide expression in the absence of LMI070; tested in plasmid DL182 (nucleic acid) DNA: GAAGAAGAAGATATCAAGTTAGCATTTACAGATTTGGCTGAGGAGAAGAACAGGTAATTAGTGTTGTTTGATATTGCTTCATTTTAAAGTTATTTGCTCATTTAGCATTTGATATTGCTTTCTATTGATTGTCCTAACTACTCCTCTTTCCTCTCCCTTCTCCATTTTTGAAGAGTTTGCAAAGGAAGGAAAGGAGCAGAGACTTGATTGAGCAGAAAATCATTTCAGGGCCTGTTCTCTATTGTCCTTGCTATCCTGTCTTCTGTAGCTATCTGAAACCATCAACAAAGGAGCACACCATGGCATCAGCAAAAGAGTAACAACATCTTTTTTTAAGTTCATTTTGTTTTTCAGTTGATTGTATTTCAATTTTTTTACAGCTGACTTTTCTCAGAGAAGTTTTTTTTTTATTGTAAACATACTTTTTCTAGAAAGTATATTTTAAAATAACATCTTTAACCTTATCTCTGGCTGAATTATTGAATATTTGAAATTATTACATTAACAAAATTTTGTCTTACAGCAGTGGTCCCCAACCTTCTTAGCAGTAGCATCCCTCATTAAGAATTAAAATTTGTAGAAATTGACAAGGATTCTGACAAGCTGTTGGGAGAGAAGAATAGAGCAGATTGCAGTAGGAACAGTTGTGTTAGAATTTATTAATCCTTTAACACTGAAAGTAAACTATTGTTGATTGCCTCTTGGTGTGTTTCCATTATTCAGTGCTCTTGCTAAGTGGGAGTCATTCCTTACATCAACCACCAACCTTCACTTGGAAGAAGCTAGCGAAGATAAACCT	–	–	–	–	–	–	–	–	–	–	–	–	more sensitive than the previous version
